Where “and” joins values, the source holds several entries; their conditions need not be identical. Identical values can stand only once.
Experiments:
MeV = conditions: depending on the MeV-strain; read-out: in vitro EC50; cited from earlier work
[1] = test system: MV/FrankfurtMain.DEU/17.11 (genotype D8); test: Rectal temperature of MeV-infected squirrel monkeys; format: in vivo, squirrel monkeys (Saimiri sciureus); conditions: for Temperature: individual animals
Method: All animal experiments were carried out in compliance with the regulations of German animal protection laws and authorized by the Regierungspräsidium Darmstadt, Germany (Dezernat V54 – Veterinärwesen und Verbraucherschutz, Hilpertstrasse 31, 64295 Darmstadt). Adult male and female squirrel monkeys (Saimiri sciureus) were obtained from BioPRIM, 31450 Baziege, or CNRS 0846 Primatologie, 13790 Rousset, France. Each experimental group was housed in a separate room, and animals of the same sex were caged together within the respective groups. For the single-dose pharmacokinetic experiment, animals were anesthetized, and the drug was given through a stomach tube at a concentration of 50 mg/kg bodyweight. Blood samples were collected after 15, 30, and 60 min, and 2, 3, 6, and 24 h. For efficacy assessment, groups of 6 animals were left untreated or treated with 50 mg/kg of ERDRP-0519 twice daily for two weeks, starting either 12 h before or 3 or 7 days after intranasal infection with 10^6 TCID50 of MV/FrankfurtMain.DEU/17.11. Clinical signs, rectal temperature, and weight were recorded daily, and throat swabs and blood samples were collected before infection and twice weekly thereafter. On day 21 post-infection, the animals were euthanized, necropsied, and samples were collected for histological analysis.

## Cn1nc(C(F)(F)F)cc1C(=O)Nc1ccc(S(=O)(=O)N2CCCC[C@H]2CCN2CCOCC2)cc1 [ERDRP-0519]
MeV
  EC50: 70 to 300 nM
[1]; Row 1 (day 0)
  Temperature, Mean Diff, untreated vs. prophylactic: -1.35
  Temperature, Mean Diff, untreated vs. therapeutic (d3): -0.9667
  Temperature, Mean Diff, untreated vs. therapeutic (d7): -0.7167
[1]; Row 2 (day 3)
  Temperature, Mean Diff, untreated vs. prophylactic: 0.5833
  Temperature, Mean Diff, untreated vs. therapeutic (d3): -0.05
  Temperature, Mean Diff, untreated vs. therapeutic (d7): -0.03333
[1]; Row 3 (day 7)
  Temperature, Mean Diff, untreated vs. prophylactic: 1.2
  Temperature, Mean Diff, untreated vs. therapeutic (d3): 0.5167
  Temperature, Mean Diff, untreated vs. therapeutic (d7): 0.4333
[1]; Row 4 (day 10)
  Temperature, Mean Diff, untreated vs. prophylactic: 0.5333
  Temperature, Mean Diff, untreated vs. therapeutic (d3): 0.3667
  Temperature, Mean Diff, untreated vs. therapeutic (d7): 0.5
[1]; Row 5 (day 14)
  Temperature, Mean Diff, untreated vs. prophylactic: -0.25
  Temperature, Mean Diff, untreated vs. therapeutic (d3): 0.4
  Temperature, Mean Diff, untreated vs. therapeutic (d7): 0.3
[1]; Row 6 (day 17)
  Temperature, Mean Diff, untreated vs. prophylactic: 0.1667
  Temperature, Mean Diff, untreated vs. therapeutic (d3): 0.24
  Temperature, Mean Diff, untreated vs. therapeutic (d7): 0.2333
[1]; Row 7 (day 21)
  Temperature, Mean Diff, untreated vs. prophylactic: -0.3167
  Temperature, Mean Diff, untreated vs. therapeutic (d3): -0.1
  Temperature, Mean Diff, untreated vs. therapeutic (d7): -0.1167
[1]; prophylactic group, day 0
  Temperature: 38.9 °C and 38.6 °C and 38.7 °C (2×) and 39.3 °C and 38.2 °C
[1]; prophylactic group, day 3
  Temperature: 38.6 °C and 38.5 °C and 39.1 °C and 39 °C and 37.5 °C and 38.8 °C
[1]; prophylactic group, day 7
  Temperature: 39.3 °C (2×) and 38.5 °C and 38.7 °C and 38.8 °C and 37.3 °C
[1]; prophylactic group, day 10
  Temperature: 39.8 °C and 39.3 °C (2×) and 38.9 °C and 38.3 °C and 39.7 °C
[1]; prophylactic group, day 14
  Temperature: 40.1 °C and 40.5 °C (2×) and 39.6 °C (2×) and 39.1 °C
[1]; prophylactic group, day 17
  Temperature: 39.7 °C (2×) and 39.8 °C and 39.3 °C and 38.7 °C and 40 °C
[1]; prophylactic group, day 21
  Temperature: 39.5 °C (2×) and 39.7 °C (2×) and 39.1 °C and 39.6 °C
[1]; prophylactic, Row 1 (day 0)
  Temperature, group mean (Mean 2): 38.73
[1]; prophylactic, Row 2 (day 3)
  Temperature, group mean (Mean 2): 38.58
[1]; prophylactic, Row 3 (day 7)
  Temperature, group mean (Mean 2): 38.65
[1]; prophylactic, Row 4 (day 10)
  Temperature, group mean (Mean 2): 39.22
[1]; prophylactic, Row 5 (day 14)
  Temperature, group mean (Mean 2): 39.9
[1]; prophylactic, Row 6 (day 17)
  Temperature, group mean (Mean 2): 39.53
[1]; prophylactic, Row 7 (day 21)
  Temperature, group mean (Mean 2): 39.52
[1]; remained within the pre-infection range, all groups
  mean temperatures in the distinct groups: less than 40 °C
[1]; therapeutic (d3) group, day 0
  Temperature: 37.9 °C and 38.1 °C and 37.8 °C and 39.1 °C and 38.4 °C and 38.8 °C
[1]; therapeutic (d3) group, day 3
  Temperature: 39.3 °C and 38.3 °C and 39.2 °C and 40 °C and 39.4 °C and 39.1 °C
[1]; therapeutic (d3) group, day 7
  Temperature: 38.9 °C and 38.7 °C and 39.4 °C (2×) and 39.8 °C (2×)
[1]; therapeutic (d3) group, day 10
  Temperature: 38.4 °C and 39 °C and 39.3 °C and 39.6 °C and 39.7 °C and 40.3 °C
[1]; therapeutic (d3) group, day 14
  Temperature: 39.1 °C (2×) and 38.7 °C and 39.5 °C (2×) and 39.6 °C
[1]; therapeutic (d3) group, day 17
  Temperature: 39.1 °C and 39.5 °C (2×) and 39.8 °C and 39.4 °C
[1]; therapeutic (d3) group, day 21
  Temperature: 39.1 °C and 38.8 °C (2×) and 39.8 °C and 40 °C
[1]; therapeutic (d3), Row 1 (day 0)
  Temperature, group mean (Mean 2): 38.35
[1]; therapeutic (d3), Row 2 (day 3)
  Temperature, group mean (Mean 2): 39.22
[1]; therapeutic (d3), Row 3 (day 7)
  Temperature, group mean (Mean 2): 39.33
[1]; therapeutic (d3), Row 4 (day 10)
  Temperature, group mean (Mean 2): 39.38
[1]; therapeutic (d3), Row 5 (day 14)
  Temperature, group mean (Mean 2): 39.25
[1]; therapeutic (d3), Row 6 (day 17), N = 5
  Temperature, group mean (Mean 2): 39.46
[1]; therapeutic (d3), Row 7 (day 21), N = 5
  Temperature, group mean (Mean 2): 39.3
[1]; therapeutic (d7) group, day 0
  Temperature: 38.4 °C and 38.3 °C and 38 °C and 37.9 °C (2×) and 38.1 °C
[1]; therapeutic (d7) group, day 3
  Temperature: 39.3 °C (2×) and 39.4 °C (2×) and 38.6 °C and 39.2 °C
[1]; therapeutic (d7) group, day 7
  Temperature: 40 °C (2×) and 39.2 °C (2×) and 38.7 °C and 39.4 °C
[1]; therapeutic (d7), Row 1 (day 0)
  Temperature, group mean (Mean 2): 38.1
[1]; therapeutic (d7), Row 2 (day 3)
  Temperature, group mean (Mean 2): 39.2
[1]; therapeutic (d7), Row 3 (day 7)
  Temperature, group mean (Mean 2): 39.42
[1]; therapeutic (d7), Row 4 (day 10)
  Temperature, group mean (Mean 2): 39.25
[1]; therapeutic (d7), Row 5 (day 14)
  Temperature, group mean (Mean 2): 39.35
[1]; therapeutic (d7), Row 6 (day 17)
  Temperature, group mean (Mean 2): 39.47
[1]; therapeutic (d7), Row 7 (day 21)
  Temperature, group mean (Mean 2): 39.32

— publication PMC8413292, “Small-molecule polymerase inhibitor protects non-human primates from measles and reduces shedding” (Nature Communications, 2021)
